Source: US4548818A, “Composition and methods for the treatment of chronic obstructive airway disease and cardiac disease using 3-alkylxanthines” (priority 1978, dated 1985)
Read-outs that look alike come from different tables or passages of the source.

Assays:
[1] = system: Guinea-pig trachea; assay: Isolated guinea-pig trachea (relaxation of carbacholine-contracted tracheal muscle); conditions: >1 more potent than theophylline; for Guinea-Pig trachea Potency rations of theophylline: Table II, molar potency ratio from EC50 values (50% maximum response), theophylline = 1 by definition, carbacholine 0.1 μg/ml; for Guinea-pig Tracheal Preparation Potency: Table III, potency ratio from EC50 values, theophyllin = 1 by definition
Method: Guinea-pigs of both sexes, weighing between 150 and 250 g, were killed by a blow on the head and bled. The trachea was removed and cut spirally yielding one or two preparations. The tracheal preparations were mounted in organ baths containing Krebs solution maintained at 37° C. and bubbled with carbogen (95% O2 +5% CO2). Isometric tension reflecting the activity in circular tracheal muscle was recorded by means of a force displacement transducer. Initial tension was set at 0.5 g which was the approximate basal tension kept during the experiment. Evaluation of relaxant effects was done when the preparations had contracted to a stable tension by the addition of carbacholine 0.1 μg/ml to the bath. […] After washing out the drugs the trachea resumed its basal tone and was left to stabilize for at least 15 min. before the next drug evaluation was performed. Between two evaluations of theophylline the effect of the test drug was examined and its EC50 value was compared with the mean of the previous and following EC50 values of theophylline.
(§1) The left column lists molar potency ratios for bronchodilatation between theophylline and various xanthine compounds. Toxic symptoms occuring before death in mice receiving constant rate infusion of drug i.v. are accounted for in the middle column. […] The far right column indicates cardiotonic activity as positive chronotropic potency.
The guinea-pig trachea were prepared as was discribed previously. Isomeric tension reflecting the activity in circular tracheal muscle was recorded by a force displacement transducer.

[2] = Source text: as §1
[3] = system: Guinea-pig heart; assay: Isolated guinea-pig hearts (Langendorff), chronotropic potency; conditions: Table II; positive chronotropic potency; theophylline = 1
Method: From the bled guinea-pigs, the hearts were immediately removed and perfused with oxygenated Krebs solution at 37° according to Langendorff. The heart was mounted in a thermostatically controlled organ bath (25 ml) containing Krebs solution. A saline-filled, open-end polyethylene catheter was inserted into the right ventricle through the pulmonary artery. The catheter was fixed to the pulmonary artery by a ligature just above the valvular plane. It was connected to a pressure transducer (P23 AC), making it possible to record changes in intraventricular pressure. From these, the contraction frequency was obtained. Drugs were given as single bolus injections into the perfusion solution.
as §1

[4] = Acute toxicity studies in mice (intravenous and oral); type: in vivo, male NMRI mice; conditions: i.v. or oral, observed 14 days
Method: Male NMRI mice, weighing 20-26 g. starved for 6 h were used. The compounds, dissolved in 0.5M NaOH and 0.85% NaCl-solution (pH 10.6-12.1) were administered as follows:
(a) intravenously, 0.1 ml/10 g at an injection rate of 0.3 ml per minute
At least seven dose levels, doses increasing in a geometric progression with a factor 1.2, were examined. Each dose was given to 5 animals. […] The position of extremities in dead animals indicated whether they had died in convulsions or not.

[5] = constant rate i.v. infusion, type of convulsion as in the effects column
[6] = toxic symptoms before death, constant rate i.v. infusion

Row | SMILES | Guinea-Pig trachea Potency rations of theophylline [1] | Convulsion test mice i.v., Death ([2]; constant rate i.v. infusion) [mg/kg i.v.] | Guinea-pig Tracheal Preparation Potency [1] | Guinea-Pig heart Potency ratios of theophylline, Chronotrop [3] | also measured
1 | Cc1nc2c([nH]1)c(=O)[nH]c(=O)n2C1CCCC1 [D 4134, 3-cyclopentyl-3,7-dihydro-8-methyl-1H-purine-2,6-dione] | 5.85 |  |  |  | 
2 | O=c1[nH]c(=O)n(C2CC2)c2nc[nH]c12 [D 4161, 3-cyclopropyl-3,7-dihydro-1H-purine-2,6-dione] | 0.5 | 1030 ± 39.3 |  |  | Convulsion test mice i.v., number of animals with convulsions / animals tested ([2]; mouse, in vivo, iv): 1/10
3 | Cc1nc2c([nH]1)c(=O)[nH]c(=O)n2CC(C)C [D 4169, 3,7-dihydro-8-methyl-3-(2-methylpropyl)-1H-purine-2,6-dione] |  |  | 3.3 |  | 
4 | CC(O)Cn1c(=O)[nH]c(=O)c2[nH]cnc21 (stereo not drawn) [D 4083, reference compound] |  |  | 0.1 |  | 
5 | Cc1nc2c([nH]1)c(=O)[nH]c(=O)n2CC(C)(C)C [D 4070, 3,7-dihydro-3-(2,2-dimethylpropyl)-8-methyl-1H-purine-2,6-dione] | 1.8 | 693.3 ± 22.2 | 1.8 | 1.5 | Convulsion test mice i.v., Effects ([2]; mouse, in vivo, iv): loss of balance
6 | O=c1[nH]c(=O)n(CCO)c2nc[nH]c12 [D 4077, reference compound] |  |  | 0.1 |  | 
7 | O=c1[nH]c(=O)n(C2CCC2)c2nc[nH]c12 [D 4164, 3-cyclobutyl-3,7-dihydro-1H-purine-2,6-dione] | 3.8 | 519.2 ± 16.86 |  | 2.1 | Convulsion test mice i.v., number of animals with convulsions / animals tested ([2]; mouse, in vivo, iv): 3/10
8 | O=c1[nH]c(=O)n(CC2CCCCC2)c2nc[nH]c12 [D 4138, 3,7-dihydro-3-cyclohexylmethyl-1H-purine-2,6-dione] | 5 | 543.6 ± 31.7 |  | 15 | 
9 | Cc1nc2c([nH]1)c(=O)[nH]c(=O)n2CC(C)O (stereo not drawn) [D 4125, reference compound] |  |  | 0.4 |  | 
10 | O=c1[nH]c(=O)n(C2CCCC2)c2nc[nH]c12 [D 4132, 3-cyclopentyl-3,7-dihydro-1H-purine-2,6-dione] | 5.65 | 593 ± 21.9 |  | 3.4 | 
11 | CC(C)(C)Cn1c(=O)[nH]c(=O)c2[nH]cnc21 [D 4034, 3,7-dihydro-3-(2,2-dimethylpropyl)-1H-purine-2,6-dione] | 3 | 519.1 ± 16.6 | 3.0 | 3 | 
12 | Cn1c(=O)c2c(ncn2C)n(C)c1=O [Caffeine, caffeine, reference compound] | 1 | 391.7 ± 17.7 |  | 0.5 | Convulsion test mice i.v., number of animals with convulsions / animals tested [2, 5]: 20/20; Convulsion test mice i.v., number of animals with convulsions / animals tested ([2]; constant rate i.v. infusion, type of convulsion as in the effects column, listed as caffeine): 20 out of 20; Convulsion test mice i.v., Effects [2, 6]: tonic conv.; Convulsion test mice i.v., Effects ([2]; toxic symptoms before death, constant rate i.v. infusion, listed as caffeine): consistently produced tonic convulsions
13 | Cc1nc2c([nH]1)c(=O)[nH]c(=O)n2CC1CCCCC1 [D 4137, 3,7-dihydro-8-methyl-3-cyclohexylmethyl-1H-purine-2,6-dione] | 4 | 493.1 ± 19.4 |  | 10 | 
14 | O=c1[nH]c(=O)n(CCCO)c2nc[nH]c12 [D 4184, reference compound] |  |  | 0.1 |  | 
15 | Cn1c(=O)c2[nH]cnc2n(C)c1=O [Theophylline, theophylline, reference compound] |  | 446.3 ± 9.6 | 1.0 |  | Convulsion test mice i.v., number of animals with convulsions / animals tested [2, 5]: 30/30; Convulsion test mice i.v., number of animals with convulsions / animals tested ([2]; constant rate i.v. infusion, type of convulsion as in the effects column, listed as theophylline): 30 out of 30; Convulsion test mice i.v., Effects [2, 6]: tonic conv.; Convulsion test mice i.v., Effects ([2]; toxic symptoms before death, constant rate i.v. infusion, listed as theophylline): consistently produced tonic convulsions; Convulsive activity in acute toxicity studies [4]: repeatedly shown to occur
